According to ChEMBL document CHEMBL5150077, “Identification of TUL01101: A Novel Potent and Selective JAK1 Inhibitor for the Treatment of Rheumatoid Arthritis” (J Med Chem, 2022):
Active and inactive are the calls of the source. The calls are words filed in the database; no cut-off is given here.

Legend:
[1] = target: Tyrosine-protein kinase JAK2 (Homo sapiens, UniProt O60674); assay: Inhibition of recombinant human JAK2 using KTFCGTPEYLAPEVRREPRILSEEEQEMFRDFDYIADWC as substrate incubated for 40 mins in presence of Mg/ATP mixture by [gamma p33]-ATP based scintillation counting method
Sequence of Tyrosine-protein kinase JAK2 (O60674 whole entry): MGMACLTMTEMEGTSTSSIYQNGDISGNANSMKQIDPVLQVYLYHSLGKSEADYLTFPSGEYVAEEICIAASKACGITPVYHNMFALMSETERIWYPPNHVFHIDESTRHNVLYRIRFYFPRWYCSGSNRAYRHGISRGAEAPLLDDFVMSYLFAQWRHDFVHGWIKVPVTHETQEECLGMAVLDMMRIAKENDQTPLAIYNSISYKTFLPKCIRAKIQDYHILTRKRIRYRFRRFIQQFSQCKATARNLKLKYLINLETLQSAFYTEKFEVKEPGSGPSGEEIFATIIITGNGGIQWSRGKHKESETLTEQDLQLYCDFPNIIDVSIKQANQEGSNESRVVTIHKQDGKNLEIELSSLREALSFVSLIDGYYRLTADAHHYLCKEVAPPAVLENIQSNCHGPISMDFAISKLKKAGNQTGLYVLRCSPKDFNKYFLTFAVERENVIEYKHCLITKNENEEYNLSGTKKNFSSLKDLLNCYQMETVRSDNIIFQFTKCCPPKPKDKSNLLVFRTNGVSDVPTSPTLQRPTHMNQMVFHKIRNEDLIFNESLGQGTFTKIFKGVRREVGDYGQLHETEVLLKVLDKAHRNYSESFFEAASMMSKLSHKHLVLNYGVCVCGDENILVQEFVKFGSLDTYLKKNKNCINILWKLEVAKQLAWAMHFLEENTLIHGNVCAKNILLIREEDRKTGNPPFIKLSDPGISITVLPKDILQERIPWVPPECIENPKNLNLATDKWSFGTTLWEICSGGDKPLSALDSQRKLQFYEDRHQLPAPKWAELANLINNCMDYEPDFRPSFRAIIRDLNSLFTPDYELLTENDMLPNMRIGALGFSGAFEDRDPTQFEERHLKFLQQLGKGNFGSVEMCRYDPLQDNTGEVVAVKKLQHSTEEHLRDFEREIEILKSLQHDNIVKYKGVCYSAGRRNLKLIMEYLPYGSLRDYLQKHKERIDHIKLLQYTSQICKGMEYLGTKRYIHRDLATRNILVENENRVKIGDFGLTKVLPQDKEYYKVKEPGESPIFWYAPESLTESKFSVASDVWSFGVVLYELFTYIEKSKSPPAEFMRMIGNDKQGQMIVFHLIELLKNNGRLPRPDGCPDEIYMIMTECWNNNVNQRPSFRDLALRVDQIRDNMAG

[2] = target: T1, Tyrosine-protein kinase JAK3 (Homo sapiens, UniProt P52333); assay: Inhibition of recombinant human JAK3 using GGEEEEYFELVKKKK as substrate incubated for 40 mins in presence of Mg/ATP mixture by [gamma p33]-ATP based scintillation counting method
T1 sequence (P52333 whole entry): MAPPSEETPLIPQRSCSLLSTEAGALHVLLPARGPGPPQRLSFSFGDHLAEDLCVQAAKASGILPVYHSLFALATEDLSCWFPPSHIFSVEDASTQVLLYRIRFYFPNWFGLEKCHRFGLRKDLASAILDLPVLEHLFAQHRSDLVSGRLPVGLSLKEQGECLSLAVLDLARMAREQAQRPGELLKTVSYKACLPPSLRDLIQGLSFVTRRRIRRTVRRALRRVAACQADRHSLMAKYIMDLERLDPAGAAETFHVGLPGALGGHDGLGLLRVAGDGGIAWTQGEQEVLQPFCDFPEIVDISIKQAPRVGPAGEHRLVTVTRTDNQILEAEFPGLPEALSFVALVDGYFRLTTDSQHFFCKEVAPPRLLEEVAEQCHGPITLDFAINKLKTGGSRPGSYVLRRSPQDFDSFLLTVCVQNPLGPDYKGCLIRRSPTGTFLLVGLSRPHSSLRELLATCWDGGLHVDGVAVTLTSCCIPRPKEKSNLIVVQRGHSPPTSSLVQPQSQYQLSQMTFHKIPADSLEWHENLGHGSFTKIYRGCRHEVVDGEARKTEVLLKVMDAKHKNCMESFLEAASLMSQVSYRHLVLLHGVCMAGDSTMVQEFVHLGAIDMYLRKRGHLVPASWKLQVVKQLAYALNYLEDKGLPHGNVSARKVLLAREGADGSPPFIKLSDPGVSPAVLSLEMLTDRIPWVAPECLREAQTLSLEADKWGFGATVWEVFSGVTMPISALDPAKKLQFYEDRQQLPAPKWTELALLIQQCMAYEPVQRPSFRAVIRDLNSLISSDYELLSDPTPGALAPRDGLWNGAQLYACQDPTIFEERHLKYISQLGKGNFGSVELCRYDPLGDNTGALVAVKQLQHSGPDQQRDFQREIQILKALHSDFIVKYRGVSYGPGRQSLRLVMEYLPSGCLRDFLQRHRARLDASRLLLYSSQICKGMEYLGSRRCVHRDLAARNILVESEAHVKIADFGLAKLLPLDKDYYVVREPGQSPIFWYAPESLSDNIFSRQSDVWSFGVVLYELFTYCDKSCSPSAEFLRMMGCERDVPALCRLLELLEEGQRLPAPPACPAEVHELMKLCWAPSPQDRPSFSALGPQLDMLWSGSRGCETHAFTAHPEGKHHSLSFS

Homo sapiens = organism: Homo sapiens; assay: Selectivity index, ratio of IC50 for inhibition of recombinant human JAK2 to IC50 for inhibition of recombinant human JAK1
[3] = Apparent permeability across apical to basolateral side in human Caco-2 cells at 10 uM measured after 120 mins by LC-MS/MS analysis; details: Caco-2
[4] = Microsomal stability in mouse liver microsomes assessed as intrinsic clearance at 1 uM incubated for 60 mins in presence of NADPH regenerating system by LC-MS/MS analysis; assay type: ADME, Microsome; details: read-out: CLH
[5] = Metabolic stability in mouse hepatocytes assessed as intrinsic clearance at 1 uM incubated for 90 mins by LC/MS/MS analysis; assay type: ADME, cell-based, Hepatocyte
Cytochrome P450 1A2 = target: T2, Cytochrome P450 1A2 (Homo sapiens, UniProt P05177); assay: Inhibition of CYP1A2 in human liver microsomes incubated in presence NADPH by LC-MS/MS analysis
T2 sequence (P05177 whole entry): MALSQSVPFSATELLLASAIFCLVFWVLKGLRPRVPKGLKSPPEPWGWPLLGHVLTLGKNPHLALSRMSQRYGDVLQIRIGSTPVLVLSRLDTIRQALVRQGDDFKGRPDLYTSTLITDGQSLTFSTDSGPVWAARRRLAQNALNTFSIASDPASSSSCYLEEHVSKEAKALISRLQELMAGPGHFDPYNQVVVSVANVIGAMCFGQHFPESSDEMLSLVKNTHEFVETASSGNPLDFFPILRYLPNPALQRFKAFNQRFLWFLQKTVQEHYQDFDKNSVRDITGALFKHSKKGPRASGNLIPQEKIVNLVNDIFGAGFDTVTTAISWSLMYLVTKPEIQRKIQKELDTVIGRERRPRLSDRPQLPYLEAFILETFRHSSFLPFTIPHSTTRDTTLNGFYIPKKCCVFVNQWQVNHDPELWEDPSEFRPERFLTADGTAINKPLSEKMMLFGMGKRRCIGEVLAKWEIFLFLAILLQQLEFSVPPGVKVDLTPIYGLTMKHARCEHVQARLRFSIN

Cytochrome P450 2C8 = target: T3, Cytochrome P450 2C8 (Homo sapiens, UniProt P10632); assay: Inhibition of CYP2C8 in human liver microsomes incubated in presence NADPH by LC-MS/MS analysis
T3 sequence (P10632 whole entry): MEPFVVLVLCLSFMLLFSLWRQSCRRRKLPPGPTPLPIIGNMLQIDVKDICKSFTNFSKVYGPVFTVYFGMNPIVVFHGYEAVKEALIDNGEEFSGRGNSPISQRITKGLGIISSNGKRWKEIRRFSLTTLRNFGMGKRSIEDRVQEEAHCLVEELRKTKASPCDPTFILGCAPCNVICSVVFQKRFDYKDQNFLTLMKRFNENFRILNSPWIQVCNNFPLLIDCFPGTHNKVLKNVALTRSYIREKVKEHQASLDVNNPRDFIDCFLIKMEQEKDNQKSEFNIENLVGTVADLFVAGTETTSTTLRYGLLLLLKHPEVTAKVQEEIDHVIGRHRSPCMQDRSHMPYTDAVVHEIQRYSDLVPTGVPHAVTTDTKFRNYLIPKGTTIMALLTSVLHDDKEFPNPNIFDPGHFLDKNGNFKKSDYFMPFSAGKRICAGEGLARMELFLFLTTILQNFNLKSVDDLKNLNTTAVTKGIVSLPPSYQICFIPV

Cytochrome P450 2C9 = Cytochrome P450 2C9 (Homo sapiens, UniProt P11712); assay: Inhibition of CYP2C9 in human liver microsomes incubated in presence NADPH by LC-MS/MS analysis
Sequence of Cytochrome P450 2C9 (P11712 whole entry): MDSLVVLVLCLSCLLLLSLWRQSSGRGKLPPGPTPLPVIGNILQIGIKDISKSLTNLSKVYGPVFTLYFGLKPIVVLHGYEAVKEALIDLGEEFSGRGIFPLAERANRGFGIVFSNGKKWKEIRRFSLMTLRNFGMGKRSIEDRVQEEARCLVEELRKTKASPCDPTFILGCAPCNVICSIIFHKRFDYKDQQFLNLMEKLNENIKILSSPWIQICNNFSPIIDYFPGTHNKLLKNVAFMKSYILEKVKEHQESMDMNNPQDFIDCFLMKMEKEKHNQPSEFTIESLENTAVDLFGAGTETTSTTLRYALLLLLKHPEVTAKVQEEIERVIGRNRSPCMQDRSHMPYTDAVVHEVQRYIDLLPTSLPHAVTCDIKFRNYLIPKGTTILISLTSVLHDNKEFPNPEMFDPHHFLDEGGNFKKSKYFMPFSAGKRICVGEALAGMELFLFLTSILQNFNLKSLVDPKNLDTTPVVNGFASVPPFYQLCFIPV

[6] = AUC in C57BL/6 mouse at 15 mg/kg, po measured for 24 hrs by LC/MS/MS analysis; assay type: ADME, organism-based; design: dose 15 mg/kg, time 24 hrs, route po; details: in vivo
in vivo = details: C57BL/6, mouse, po, 15 mg/kg
Mus musculus = assay: Antiarthritic activity in collagen-induced rheumatoid arthritis DBA/1 mouse model assessed as reduction in clinical score AUC at 15 mg/kg, po BID administered for 14 days starting from 7 days before immunization to 21 days after immunization and measured on day 41 post immunization; assay type: functional, organism-based; details: time 14.0 day

Row | Compound | IC50 [1] [µM] | IC50 [2] [µM] | Ratio IC50 (Homo sapiens) | Papp A→B at 2 h, 10 µM [3] [×10⁻⁶ cm/s] | microsomal CLint at 1 µM [4] [µL/min/mg] | CLH [5] [µL/min/mg] | IC50 (Cytochrome P450 1A2) [µM] | IC50 (Cytochrome P450 2C8) [µM] | IC50 (Cytochrome P450 2C9) [µM] | AUC at 24 h [6] [µM·h] | bioavailability at 24 h (in vivo) [%] | Activity (Mus musculus)
1 | O=C(Nc1nc2cccc(C3CCC4(CC3)CCN(C(=O)[C@@H]3CC3(F)F)C4)n2n1)C1CC1 (stereo not given in full) | 0.324 | 5.76 | 10.5 | 1.6 | 46.5 | 134.3 | > 100 | > 100 | 49 |  |  | 
2 | O=C(Nc1nc2cccc([C@H]3CC[C@@H](NC(=O)[C@@H]4CC4(F)F)CC3)n2n1)C1CC1 | […] | 0.957 | […] | 2.78 | 24.2 | 34.2 | 8.21 | > 100 | > 100 | […] | 66.6 | 
3 | O=C(Nc1nc2cccc(C3CCC4(CC3)CCN(C(=O)[C@@H]3CC3(F)F)CC4)n2n1)C1CC1 | 0.04 | 1 | 13.3 | 4.29 | 20.8 | 40.6 | > 100 | > 100 | 46.8 | 18 | 50.1 | Active
4 | O=C(Nc1nc2cccc(C3CCC4(CC3)CN(C(=O)[C@@H]3CC3(F)F)C4)n2n1)C1CC1 |  |  |  |  | < 9.6 | 9.1 |  |  |  |  |  | Active
